{"source": "patent US9593305B2", "about": "“Differentiation of pluripotent stem cells” (Janssen Biotech, Inc., priority 2008, dated 2017)", "tested_on": "H1 human embryonic stem cells", "test": "Secondary assay: panel of compounds with growth factor combinations and muscimol, no activin A (Example 6, Table 5)", "format": "cell-based", "conditions": "no AA (with Wnt3a)", "key": {"[1]": {"conditions": "EGF + FGF4 + PDGF-AB + Muscimol"}}, "data": [{"smiles": "CN1CCC(=O)NCCCNc2ncccc2-c2ncnc(n2)Nc2cccc(c2)C1", "note": "[Compound 39, 9-Methyl-2,3,4,5,7,8,9,10-octahydro-16H-17,21-(azeno)-11,15-(metheno)pyrido[3,2-g][1,3,5,9,13,17]hexaazacyclotricosin-6(1H)-one]", "values": [{"measurement": "Cell Number, % of positive control", "setting": "EGF", "result": 122.85, "unit": "%"}, {"measurement": "Cell Number, Average Total Cell Number", "setting": "EGF", "result": 11615}, {"measurement": "Sox17 Expression, % of positive control", "setting": "EGF", "result": 0.09, "unit": "%"}, {"measurement": "Sox17 Expression, Average Total Intensity", "setting": "EGF", "result": "1.49E+05"}, {"measurement": "Cell Number, % of positive control", "setting": "EGF + FGF4", "result": 110.59, "unit": "%"}, {"measurement": "Cell Number, Average Total Cell Number", "setting": "EGF + FGF4", "result": 10456}, {"measurement": "Sox17 Expression, % of positive control", "setting": "EGF + FGF4", "result": 2.98, "unit": "%"}, {"measurement": "Sox17 Expression, Average Total Intensity", "setting": "EGF + FGF4", "result": "5.11E+06"}, {"measurement": "Cell Number, % of positive control", "setting": "EGF + FGF4 + PDGF-A + Muscimol", "result": 96.28, "unit": "%"}, {"measurement": "Cell Number, Average Total Cell Number", "setting": "EGF + FGF4 + PDGF-A + Muscimol", "result": 9103}, {"measurement": "Sox17 Expression, % of positive control", "setting": "EGF + FGF4 + PDGF-A + Muscimol", "result": 0.43, "unit": "%"}, {"measurement": "Sox17 Expression, Average Total Intensity", "setting": "EGF + FGF4 + PDGF-A + Muscimol", "result": "7.32E+05"}, {"measurement": "Cell Number, % of positive control", "setting": "EGF + FGF4 + PDGF-A + VEGF", "result": 84.33, "unit": "%"}, {"measurement": "Cell Number, Average Total Cell Number", "setting": "EGF + FGF4 + PDGF-A + VEGF", "result": 7973}, {"measurement": "Sox17 Expression, % of positive control", "setting": "EGF + FGF4 + PDGF-A + VEGF", "result": 3.09, "unit": "%"}, {"measurement": "Sox17 Expression, Average Total Intensity", "setting": "EGF + FGF4 + PDGF-A + VEGF", "result": "5.30E+06"}, {"measurement": "Cell Number, % of positive control", "setting": "EGF + FGF4 + PDGF-AB", "result": 105.47, "unit": "%"}, {"measurement": "Cell Number, Average Total Cell Number", "setting": "EGF + FGF4 + PDGF-AB", "result": 9972}, {"measurement": "Sox17 Expression, % of positive control", "setting": "EGF + FGF4 + PDGF-AB", "result": 0.94, "unit": "%"}, {"measurement": "Sox17 Expression, Average Total Intensity", "setting": "EGF + FGF4 + PDGF-AB", "result": "1.62E+06"}, {"measurement": "Cell Number, % of positive control", "setting": "[1]", "result": 111.48, "unit": "%"}, {"measurement": "Cell Number, Average Total Cell Number", "setting": "[1]", "result": 10540}, {"measurement": "Sox17 Expression, % of positive control", "setting": "[1]", "result": 1.29, "unit": "%"}, {"measurement": "Sox17 Expression, Average Total Intensity", "setting": "[1]", "result": "2.22E+06"}, {"measurement": "Cell Number, % of positive control", "setting": "EGF + PDGF-A + VEGF", "result": 180.34, "unit": "%"}, {"measurement": "Cell Number, Average Total Cell Number", "setting": "EGF + PDGF-A + VEGF", "result": 17050}, {"measurement": "Sox17 Expression, % of positive control", "setting": "EGF + PDGF-A + VEGF", "result": 2.82, "unit": "%"}, {"measurement": "Sox17 Expression, Average Total Intensity", "setting": "EGF + PDGF-A + VEGF", "result": "4.84E+06"}, {"measurement": "Cell Number, % of positive control", "setting": "FGF4 + PDGF-A + VEGF", "result": 93.67, "unit": "%"}, {"measurement": "Cell Number, Average Total Cell Number", "setting": "FGF4 + PDGF-A + VEGF", "result": 8856}, {"measurement": "Sox17 Expression, % of positive control", "setting": "FGF4 + PDGF-A + VEGF", "result": 0.41, "unit": "%"}, {"measurement": "Sox17 Expression, Average Total Intensity", "setting": "FGF4 + PDGF-A + VEGF", "result": "7.01E+05"}]}]}
